Assay results as given in ChEMBL document CHEMBL3407354, “Recent advances in the development of acetyl-CoA carboxylase (ACC) inhibitors for the treatment of metabolic disease” (J Med Chem, 2015).

What was measured:
Acetyl-CoA carboxylase 2 [1] = target: T1, Acetyl-CoA carboxylase 2 (Homo sapiens, UniProt O00763); assay: Inhibition of human ACC2 assessed as malonyl CoA formation by NADH-linked kinetic method
Rattus norvegicus = organism: Rattus norvegicus; assay: Reduction in fatty acid synthesis in Sprague-Dawley rat; format: functional
HepG2 = assay: Inhibition of fatty acid synthesis in human HepG2 cells; format: functional, cell-based
Acetyl-CoA carboxylase 1 [2] = target: Acetyl-CoA carboxylase 1 (Homo sapiens, UniProt Q13085); assay: In vitro inhibition of human recombinant His-tagged ACC1 assessed as malonyl-CoA level
Acetyl-CoA carboxylase 2 [3] = target: T1, Acetyl-CoA carboxylase 2; assay: In vitro inhibition of human recombinant His-tagged ACC2 assessed as malonyl-CoA level
[4] = Lipophilicity, log D of the compound; format: physicochemical; conditions: octanol/water
[5] = Intrinsic clearance in human microsomes; format: ADME
Acetyl-CoA carboxylase 1 [6] = target: Acetyl-CoA carboxylase 1 (Rattus norvegicus, UniProt P11497); assay: Inhibition of rat recombinant ACC1

T1 sequence (O00763 whole entry): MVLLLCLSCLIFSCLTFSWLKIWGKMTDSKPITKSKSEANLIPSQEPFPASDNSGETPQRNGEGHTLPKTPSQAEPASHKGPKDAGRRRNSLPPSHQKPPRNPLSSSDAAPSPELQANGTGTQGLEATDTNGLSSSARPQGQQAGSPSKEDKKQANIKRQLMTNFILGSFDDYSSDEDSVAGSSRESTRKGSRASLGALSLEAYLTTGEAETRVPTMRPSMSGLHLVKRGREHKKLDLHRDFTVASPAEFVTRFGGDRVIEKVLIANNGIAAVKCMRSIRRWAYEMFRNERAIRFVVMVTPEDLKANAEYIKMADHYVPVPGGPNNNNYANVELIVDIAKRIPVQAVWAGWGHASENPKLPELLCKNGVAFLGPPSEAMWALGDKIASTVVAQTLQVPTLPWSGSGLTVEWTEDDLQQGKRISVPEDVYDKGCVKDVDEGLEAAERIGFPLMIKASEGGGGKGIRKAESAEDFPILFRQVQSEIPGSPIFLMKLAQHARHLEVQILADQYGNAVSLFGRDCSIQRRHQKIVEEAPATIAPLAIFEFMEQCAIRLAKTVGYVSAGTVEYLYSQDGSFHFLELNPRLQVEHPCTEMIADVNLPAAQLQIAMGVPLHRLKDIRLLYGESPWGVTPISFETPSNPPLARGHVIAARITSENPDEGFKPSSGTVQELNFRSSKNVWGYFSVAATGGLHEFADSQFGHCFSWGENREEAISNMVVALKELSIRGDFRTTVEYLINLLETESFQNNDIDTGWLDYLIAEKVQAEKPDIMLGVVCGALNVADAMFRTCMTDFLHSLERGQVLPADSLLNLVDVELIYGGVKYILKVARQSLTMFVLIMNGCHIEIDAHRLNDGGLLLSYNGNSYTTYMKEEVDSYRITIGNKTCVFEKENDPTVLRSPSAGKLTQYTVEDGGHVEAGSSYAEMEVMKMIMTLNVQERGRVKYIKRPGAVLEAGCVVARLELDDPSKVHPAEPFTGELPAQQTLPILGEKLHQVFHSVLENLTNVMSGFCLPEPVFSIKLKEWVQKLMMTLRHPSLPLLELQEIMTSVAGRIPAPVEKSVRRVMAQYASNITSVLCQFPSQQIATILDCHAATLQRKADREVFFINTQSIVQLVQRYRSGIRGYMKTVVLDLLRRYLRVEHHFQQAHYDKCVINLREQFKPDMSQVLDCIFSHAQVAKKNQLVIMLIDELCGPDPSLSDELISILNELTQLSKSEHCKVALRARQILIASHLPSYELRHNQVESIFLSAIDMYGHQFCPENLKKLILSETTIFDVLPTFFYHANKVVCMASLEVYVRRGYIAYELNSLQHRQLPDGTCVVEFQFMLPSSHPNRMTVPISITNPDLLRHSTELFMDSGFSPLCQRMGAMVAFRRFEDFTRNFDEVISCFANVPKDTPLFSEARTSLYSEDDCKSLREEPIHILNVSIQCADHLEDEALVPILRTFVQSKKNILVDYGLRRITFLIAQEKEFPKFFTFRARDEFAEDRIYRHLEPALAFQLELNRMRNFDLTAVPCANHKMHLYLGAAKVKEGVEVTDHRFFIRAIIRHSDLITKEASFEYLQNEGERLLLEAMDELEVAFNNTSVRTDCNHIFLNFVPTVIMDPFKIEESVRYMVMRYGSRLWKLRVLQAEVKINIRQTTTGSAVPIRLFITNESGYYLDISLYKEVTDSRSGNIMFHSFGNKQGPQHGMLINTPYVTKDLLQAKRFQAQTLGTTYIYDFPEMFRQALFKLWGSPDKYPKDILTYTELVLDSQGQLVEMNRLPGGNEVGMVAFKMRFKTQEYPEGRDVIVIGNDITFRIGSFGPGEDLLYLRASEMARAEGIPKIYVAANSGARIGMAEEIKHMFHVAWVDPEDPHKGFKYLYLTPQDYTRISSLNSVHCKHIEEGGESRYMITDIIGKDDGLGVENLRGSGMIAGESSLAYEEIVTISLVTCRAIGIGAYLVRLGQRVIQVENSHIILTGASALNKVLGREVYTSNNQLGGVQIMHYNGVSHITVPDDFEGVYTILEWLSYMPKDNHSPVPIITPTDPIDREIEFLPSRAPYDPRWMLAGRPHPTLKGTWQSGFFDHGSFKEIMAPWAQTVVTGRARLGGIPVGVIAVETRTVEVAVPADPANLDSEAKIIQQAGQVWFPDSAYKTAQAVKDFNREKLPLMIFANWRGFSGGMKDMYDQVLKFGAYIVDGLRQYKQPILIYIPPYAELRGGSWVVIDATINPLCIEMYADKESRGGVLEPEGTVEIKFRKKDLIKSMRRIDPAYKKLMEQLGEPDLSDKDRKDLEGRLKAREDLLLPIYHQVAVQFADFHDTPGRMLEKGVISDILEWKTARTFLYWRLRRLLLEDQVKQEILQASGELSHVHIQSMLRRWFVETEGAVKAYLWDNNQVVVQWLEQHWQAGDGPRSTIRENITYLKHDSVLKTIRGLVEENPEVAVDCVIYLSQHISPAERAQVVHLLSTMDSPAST

Structure (SMILES): CCOc1ccc(N2CC(Oc3ccc([C@H](C)NC(=O)c4cn[nH]c4)cc3)C2)c(C)c1
- IC50 (Acetyl-CoA carboxylase 2 [1]): 50 nM

Structure (SMILES): COc1ccccc1[C@H](Cn1c(=O)n(C(C)(C)C(=O)O)c(=O)c2c(C)c(-c3ncco3)sc21)OC1CCOCC1 [FIRSOCOSTAT]
- ED50 (Rattus norvegicus): < 0.3 mg/kg
- IC50 (HepG2): < 100 nM
- IC50 (Acetyl-CoA carboxylase 1 [2]): 0.0026 µM
- IC50 (Acetyl-CoA carboxylase 2 [3]): 1.7 nM

Structure (SMILES): COc1ccccc1[C@@H](Cn1c(=O)n(C(C)(C)C(=O)O)c(=O)c2c(C)c(-c3ncco3)sc21)OC(C)C
- IC50 (HepG2): < 100 nM

Structure (SMILES): CCCOc1ccc(C2CCN(c3ccc(C(C)NC(C)=O)cc3F)CC2)c(C)c1 (racemic)
- IC50 (Acetyl-CoA carboxylase 2 [1]): 60 nM

Structure (SMILES): CC(C)(C)n1cc2c(n1)C(=O)CC1(CCN(C(=O)c3ccc4[nH]ncc4c3)CC1)O2
- logD [4]: 1.8
- CLint scaled [5]: ≤ 8 mL/min/kg

Structure (SMILES): Cc1cc2c(cc1C)C(=O)CC1(CCN(C(=O)c3cc(C)c4[nH]ncc4c3)CC1)O2
- CLint scaled [5]: 86 mL/min/kg
- IC50 (Acetyl-CoA carboxylase 1 [6]): 25 nM

Structure (SMILES): CCOC(=O)N1CCN(c2nc(C)nc3sc4c(c23)CCCC4)CC1
- IC50 (Acetyl-CoA carboxylase 1 [2]): 23 µM

Structure (SMILES): Cc1cc(OCC2CC2)ccc1C1CCN(c2ccc(C(C)C(=O)NC3CC3)cc2)CC1 (racemic)
- IC50 (Acetyl-CoA carboxylase 2 [1]): 80 nM

Structure (SMILES): CC(C)(C)OC(=O)CC[C@H]1CC[C@H](CNC(=O)c2cc(-c3ccccc3)nc3ccccc23)CC1
- logD [4]: 5.9
